Test results: paper PMC11496704, “Synthesis and cytotoxicity studies of novel N-arylbenzo[h]quinazolin-2-amines” (Beilstein Journal of Organic Chemistry, 2024)

system: HuH-7; experiment: Cytotoxicity secondary screen (IC50); assay type: cell-based; details: Homo sapiens, 48 h exposure, mean of triplicates, NE: no effect
Experimental: (§1) Cell culture. Skin normal fibroblastic cells are purchased from Lonza (Basel, Switzerland), HuH-7, Caco-2, MDA-MB-231, HCT-116, PC3, MCF7 and NCI-H727 cancer cell lines were obtained from ATCC (American Type Culture Collection). Cells are grown at 37 °C, 5% CO2 in ATCC recommended media: DMEM for HuH-7, MDA-MB-231, MDA-MB-468 and fibroblast, EMEM for MCF7 and CaCo-2, McCoy’s for HCT-116 and RPMI for PC3 and NCI-H727. All culture media are supplemented by 10% of FBS, 1% of penicillin-streptomycin and 2 mM glutamine.
(§2) Both studies have been performed following the protocols described in a previous paper, see ref. [2].

Row | SMILES | IC50 [µM]
1 | Brc1cc(Br)cc(Nc2ncc3ccc4ccccc4c3n2)c1 [Compound 4o, N-(3,5-dibromophenyl)benzo[h]quinazolin-2-amine] | 24
2 | Clc1cc(Br)cc(Nc2ncc3ccc4ccccc4c3n2)c1 [Compound 4q, N-(3-bromo-5-chlorophenyl)benzo[h]quinazolin-2-amine] | 16
3 | COc1cccc2c1C(=O)c1c(O)c3c(c(O)c1C2=O)C[C@@](O)(C(=O)CO)C[C@@H]3O[C@H]1C[C@H](N)[C@H](O)[C@H](C)O1 [doxorubicin, reference compound] | 0.03

system: PC3; experiment: Cytotoxicity secondary screen (IC50); assay type: cell-based; details: Homo sapiens, PC-3; 48 h exposure, mean of triplicates; NE: no effect
Experimental: as §1, §2

Row | SMILES | IC50 [µM]
4 | Brc1cc(Br)cc(Nc2ncc3ccc4ccccc4c3n2)c1 [Compound 4o, N-(3,5-dibromophenyl)benzo[h]quinazolin-2-amine] | 21
5 | Clc1cc(Br)cc(Nc2ncc3ccc4ccccc4c3n2)c1 [Compound 4q, N-(3-bromo-5-chlorophenyl)benzo[h]quinazolin-2-amine] | 19
6 | COc1cccc2c1C(=O)c1c(O)c3c(c(O)c1C2=O)C[C@@](O)(C(=O)CO)C[C@@H]3O[C@H]1C[C@H](N)[C@H](O)[C@H](C)O1 [doxorubicin, reference compound] | 0.06

system: normal human fibroblasts; experiment: Cytotoxicity secondary screen (IC50); assay type: cell-based; details: Fibroblast, 48 h exposure, mean of triplicates, NE: no effect, highest concentration tested 25 μM, read-out: IC50 Fibro
Experimental: as §1, §2

Row | SMILES | IC50 [µM]
7 | Brc1cc(Br)cc(Nc2ncc3ccc4ccccc4c3n2)c1 [Compound 4o, N-(3,5-dibromophenyl)benzo[h]quinazolin-2-amine] | > 25
8 | Clc1cc(Br)cc(Nc2ncc3ccc4ccccc4c3n2)c1 [Compound 4q, N-(3-bromo-5-chlorophenyl)benzo[h]quinazolin-2-amine] | > 25

system: Caco-2; experiment: Cytotoxicity secondary screen (IC50); assay type: cell-based; details: Homo sapiens, 48 h exposure, mean of triplicates, NE: no effect
Experimental: (§3) Next, we performed a cytotoxicity screening of the nineteen molecules 4a–s, at 25 μM, investigating seven representative cancer cell lines: hepatocellular carcinoma HuH-7, colorectal adenocarcinoma CaCo-2, breast carcinoma MDA-MB-231 and MDA-MB-468, colorectal carcinoma HCT-116, prostate carcinoma PC3 and breast carcinoma MCF7. […] For details see: ref. [2] and Supporting Information File 1, Table S1.
as §1, §2

Row | SMILES | IC50 [µM]
9 | Brc1cc(Br)cc(Nc2ncc3ccc4ccccc4c3n2)c1 [Compound 4o, N-(3,5-dibromophenyl)benzo[h]quinazolin-2-amine] | 16
10 | Clc1cc(Br)cc(Nc2ncc3ccc4ccccc4c3n2)c1 [Compound 4q, N-(3-bromo-5-chlorophenyl)benzo[h]quinazolin-2-amine] | 14

system: HCT-116; experiment: Cytotoxicity secondary screen (IC50); assay type: cell-based; details: Homo sapiens, 48 h exposure, mean of triplicates, NE: no effect
Experimental: as §3, §1, §2

Row | SMILES | IC50 [µM]
11 | Brc1cc(Br)cc(Nc2ncc3ccc4ccccc4c3n2)c1 [Compound 4o, N-(3,5-dibromophenyl)benzo[h]quinazolin-2-amine] | 23
12 | Clc1cc(Br)cc(Nc2ncc3ccc4ccccc4c3n2)c1 [Compound 4q, N-(3-bromo-5-chlorophenyl)benzo[h]quinazolin-2-amine] | 13
13 | COc1cccc2c1C(=O)c1c(O)c3c(c(O)c1C2=O)C[C@@](O)(C(=O)CO)C[C@@H]3O[C@H]1C[C@H](N)[C@H](O)[C@H](C)O1 [doxorubicin, reference compound] | 0.04

system: Caco-2; experiment: Cytotoxicity primary screen (single dose); assay type: cell-based; details: reference compound at 0.025 M (so in the source), 48 h exposure, mean of triplicates
Experimental: as §3, §1, §2
(§4) Table S1: Cytotoxicity studies (single dose at 25µM) of N-arylbenzo[h]quinazolin-2-amines 4a–s
(§5) The toxicity is expressed as the percentage of cell survival (from 100 % to 0 %) over DMSO control after 48 h exposure (mean of triplicates).
(§6) Effect of the solvent (DMSO) was studied at 0.25%.

Row | SMILES | percentage of cell survival over DMSO control, CaCo-2 [%]
14 | COc1cccc2c1C(=O)c1c(O)c3c(c(O)c1C2=O)C[C@@](O)(C(=O)CO)C[C@@H]3O[C@H]1C[C@H](N)[C@H](O)[C@H](C)O1 [doxorubicin, reference compound] | 59

same assay, conditions: single dose 25 μM, 48 h exposure, mean of triplicates

Row | SMILES | percentage of cell survival over DMSO control, CaCo-2 [%]
15 | Brc1cc(Br)cc(Nc2ncc3ccc4ccccc4c3n2)c1 [Compound 4o, N-(3,5-dibromophenyl)benzo[h]quinazolin-2-amine] | 46
16 | Clc1cc(Br)cc(Nc2ncc3ccc4ccccc4c3n2)c1 [Compound 4q, N-(3-bromo-5-chlorophenyl)benzo[h]quinazolin-2-amine] | 35

system: HuH7; experiment: Cytotoxicity primary screen (single dose); assay type: cell-based; details: Homo sapiens, Huh-7; single dose 25 μM, 48 h exposure, mean of triplicates; read-out: percentage of cell survival over DMSO control, HuH7
Experimental: as §3, §1, §2, §4, §5, §6

Row | SMILES | viability at 25 µM [%]
17 | Brc1cc(Br)cc(Nc2ncc3ccc4ccccc4c3n2)c1 [Compound 4o, N-(3,5-dibromophenyl)benzo[h]quinazolin-2-amine] | 62
18 | Clc1cc(Br)cc(Nc2ncc3ccc4ccccc4c3n2)c1 [Compound 4q, N-(3-bromo-5-chlorophenyl)benzo[h]quinazolin-2-amine] | 49

system: HCT116; experiment: Cytotoxicity primary screen (single dose); assay type: cell-based; design: viability: dose or concentration left out as unconfirmed; details: Homo sapiens, HCT-116; single dose 25 μM, 48 h exposure, mean of triplicates; read-out: percentage of cell survival over DMSO control, HCT116
Experimental: as §3, §1, §2, §4, §5, §6

Row | SMILES | viability at 25 µM [%]
19 | Brc1cc(Br)cc(Nc2ncc3ccc4ccccc4c3n2)c1 [Compound 4o, N-(3,5-dibromophenyl)benzo[h]quinazolin-2-amine] | 27
20 | Clc1cc(Br)cc(Nc2ncc3ccc4ccccc4c3n2)c1 [Compound 4q, N-(3-bromo-5-chlorophenyl)benzo[h]quinazolin-2-amine] | 13

system: MCF7; experiment: Cytotoxicity primary screen (single dose); assay type: cell-based; design: viability: dose or concentration left out as unconfirmed; details: Homo sapiens, single dose 25 μM, 48 h exposure, mean of triplicates, read-out: percentage of cell survival over DMSO control, MCF7
Experimental: as §3, §1, §2, §4, §5, §6

Row | SMILES | viability at 25 µM [%]
21 | Brc1cc(Br)cc(Nc2ncc3ccc4ccccc4c3n2)c1 [Compound 4o, N-(3,5-dibromophenyl)benzo[h]quinazolin-2-amine] | 85
22 | Clc1cc(Br)cc(Nc2ncc3ccc4ccccc4c3n2)c1 [Compound 4q, N-(3-bromo-5-chlorophenyl)benzo[h]quinazolin-2-amine] | 73

system: MDA231; experiment: Cytotoxicity primary screen (single dose); assay type: cell-based; design: viability: dose or concentration left out as unconfirmed; details: Homo sapiens, MDA-MB-231; 48 h exposure, mean of triplicates; read-out: percentage of cell survival over DMSO control, MDA231
Experimental: as §3, §1, §2, §4, §5, §6

Row | SMILES | viability [%]
23 | COc1cccc2c1C(=O)c1c(O)c3c(c(O)c1C2=O)C[C@@](O)(C(=O)CO)C[C@@H]3O[C@H]1C[C@H](N)[C@H](O)[C@H](C)O1 [doxorubicin, reference compound] | 31

same assay, conditions: Homo sapiens, MDA-MB-231; single dose 25 μM, 48 h exposure, mean of triplicates; read-out: percentage of cell survival over DMSO control, MDA231

Row | SMILES | viability at 25 µM [%]
24 | Brc1cc(Br)cc(Nc2ncc3ccc4ccccc4c3n2)c1 [Compound 4o, N-(3,5-dibromophenyl)benzo[h]quinazolin-2-amine] | 67
25 | Clc1cc(Br)cc(Nc2ncc3ccc4ccccc4c3n2)c1 [Compound 4q, N-(3-bromo-5-chlorophenyl)benzo[h]quinazolin-2-amine] | 41

system: MDA468; experiment: Cytotoxicity primary screen (single dose); assay type: cell-based; design: viability: dose or concentration left out as unconfirmed; details: 48 h exposure, mean of triplicates; read-out: percentage of cell survival over DMSO control, MDA468
Experimental: as §3, §1, §2, §4, §5, §6

Row | SMILES | viability [%]
26 | COc1cccc2c1C(=O)c1c(O)c3c(c(O)c1C2=O)C[C@@](O)(C(=O)CO)C[C@@H]3O[C@H]1C[C@H](N)[C@H](O)[C@H](C)O1 [doxorubicin, reference compound] | 24

same assay, conditions: single dose 25 μM, 48 h exposure, mean of triplicates; read-out: percentage of cell survival over DMSO control, MDA468

Row | SMILES | viability at 25 µM [%]
27 | Brc1cc(Br)cc(Nc2ncc3ccc4ccccc4c3n2)c1 [Compound 4o, N-(3,5-dibromophenyl)benzo[h]quinazolin-2-amine] | 47
28 | Clc1cc(Br)cc(Nc2ncc3ccc4ccccc4c3n2)c1 [Compound 4q, N-(3-bromo-5-chlorophenyl)benzo[h]quinazolin-2-amine] | 38

system: PC3; experiment: Cytotoxicity primary screen (single dose); assay type: cell-based; design: viability: dose or concentration left out as unconfirmed; details: Homo sapiens, PC-3; 48 h exposure, mean of triplicates; read-out: percentage of cell survival over DMSO control, PC3
Experimental: as §3, §1, §2, §4, §5, §6

Row | SMILES | viability [%]
29 | COc1cccc2c1C(=O)c1c(O)c3c(c(O)c1C2=O)C[C@@](O)(C(=O)CO)C[C@@H]3O[C@H]1C[C@H](N)[C@H](O)[C@H](C)O1 [doxorubicin, reference compound] | 42

same assay, conditions: Homo sapiens, PC-3; single dose 25 μM, 48 h exposure, mean of triplicates; read-out: percentage of cell survival over DMSO control, PC3

Row | SMILES | viability at 25 µM [%]
30 | Brc1cc(Br)cc(Nc2ncc3ccc4ccccc4c3n2)c1 [Compound 4o, N-(3,5-dibromophenyl)benzo[h]quinazolin-2-amine] | 38
31 | Clc1cc(Br)cc(Nc2ncc3ccc4ccccc4c3n2)c1 [Compound 4q, N-(3-bromo-5-chlorophenyl)benzo[h]quinazolin-2-amine] | 24

system: MDA-MB-231; experiment: Cytotoxicity secondary screen (IC50); assay type: cell-based; details: Homo sapiens, 48 h exposure, mean of triplicates, NE: no effect

Row | SMILES | IC50 [µM]
32 | Brc1cc(Br)cc(Nc2ncc3ccc4ccccc4c3n2)c1 [Compound 4o, N-(3,5-dibromophenyl)benzo[h]quinazolin-2-amine] | > 25
33 | Clc1cc(Br)cc(Nc2ncc3ccc4ccccc4c3n2)c1 [Compound 4q, N-(3-bromo-5-chlorophenyl)benzo[h]quinazolin-2-amine] | 20
34 | COc1cccc2c1C(=O)c1c(O)c3c(c(O)c1C2=O)C[C@@](O)(C(=O)CO)C[C@@H]3O[C@H]1C[C@H](N)[C@H](O)[C@H](C)O1 [doxorubicin, reference compound] | 0.03

system: MDA-MB-468; experiment: Cytotoxicity secondary screen (IC50); assay type: cell-based; details: Homo sapiens, 48 h exposure, mean of triplicates, NE: no effect

Row | SMILES | IC50 [µM]
35 | Brc1cc(Br)cc(Nc2ncc3ccc4ccccc4c3n2)c1 [Compound 4o, N-(3,5-dibromophenyl)benzo[h]quinazolin-2-amine] | 20
36 | Clc1cc(Br)cc(Nc2ncc3ccc4ccccc4c3n2)c1 [Compound 4q, N-(3-bromo-5-chlorophenyl)benzo[h]quinazolin-2-amine] | 19
37 | COc1cccc2c1C(=O)c1c(O)c3c(c(O)c1C2=O)C[C@@](O)(C(=O)CO)C[C@@H]3O[C@H]1C[C@H](N)[C@H](O)[C@H](C)O1 [doxorubicin, reference compound] | 0.03

system: MCF7; experiment: Cytotoxicity secondary screen (IC50); assay type: cell-based; details: Homo sapiens, 48 h exposure, mean of triplicates, NE: no effect

Row | SMILES | IC50 [µM]
38 | Brc1cc(Br)cc(Nc2ncc3ccc4ccccc4c3n2)c1 [Compound 4o, N-(3,5-dibromophenyl)benzo[h]quinazolin-2-amine] | 21
39 | Clc1cc(Br)cc(Nc2ncc3ccc4ccccc4c3n2)c1 [Compound 4q, N-(3-bromo-5-chlorophenyl)benzo[h]quinazolin-2-amine] | 14
40 | COc1cccc2c1C(=O)c1c(O)c3c(c(O)c1C2=O)C[C@@](O)(C(=O)CO)C[C@@H]3O[C@H]1C[C@H](N)[C@H](O)[C@H](C)O1 [doxorubicin, reference compound] | 0.07

system: HuH7; experiment: Cytotoxicity primary screen (single dose); assay type: cell-based; design: dose or concentration left out as unconfirmed; details: Homo sapiens, Huh-7; 48 h exposure, mean of triplicates; read-out: percentage of cell survival over DMSO control, HuH7

Row | SMILES | viability [%]
41 | COc1cccc2c1C(=O)c1c(O)c3c(c(O)c1C2=O)C[C@@](O)(C(=O)CO)C[C@@H]3O[C@H]1C[C@H](N)[C@H](O)[C@H](C)O1 [doxorubicin, reference compound] | 59
